Key:
[1] = molecular target: T1, UPPS (Undecaprenyl Pyrophosphate Synthase) (Bacteroides fragilis, UniProt Q5LI17); experiment: RP-HPLC with fluorescence detection; format: biochemical; conditions: IPP 0.2 mM, MgCl2 0.5 mM, KCl 5 mM, 0.1% DDM, HEPES pH 7.4, 37 °C, 1 h
T1 sequence (Q5LI17 1-244): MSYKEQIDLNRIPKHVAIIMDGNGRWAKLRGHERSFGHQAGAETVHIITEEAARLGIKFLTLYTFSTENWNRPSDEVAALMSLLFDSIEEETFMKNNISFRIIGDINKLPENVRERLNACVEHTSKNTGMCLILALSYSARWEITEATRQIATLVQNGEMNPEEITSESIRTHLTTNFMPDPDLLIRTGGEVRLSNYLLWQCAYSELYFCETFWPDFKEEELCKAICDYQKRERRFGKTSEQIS

[2] = molecular target: T1, UPPS (Undecaprenyl Pyrophosphate Synthase); experiment: RP-HPLC with fluorescence detection, TLC, ESI-MS, 1H-NMR of product; format: biochemical; conditions: IPP 0.2 mM, MgCl2 0.5 mM, KCl 5 mM, 0.1% DDM, HEPES pH 7.4, 37 °C

| Structure (SMILES) | RP-HPLC with fluorescence detection [1] | RP-HPLC with fluorescence detection, TLC, ESI-MS, 1H-NMR of product [2] |
| --- | --- | --- |
| C/C(=C/COP(=O)(O)OP(=O)(O)O)CC/C=C(\C)CNc1ccccc1C(N)=O [6a, (6Z)-8-(2-amideaniline)-3,7-dimethyl-2,6-octadiene diphosphate] | we observed identical activity with 2AB-N-PP |  |
| C/C(=C\COP(=O)(O)OP(=O)(O)O)CC/C=C(\C)CNc1ccccc1C(N)=O [6b, (6E)-8-(2-amideaniline)-3,7-dimethyl-2,6-octadiene diphosphate] |  | these results confirmed the formation of the long chain isoprenoid with 2AB-G-PP as the UPPS substrate |

— publication PMC3758898 (Bioorganic & medicinal chemistry, 2013)
